According to EP4635500A1, “THERAPEUTIC AGENT FOR BACTERIAL INFECTION” (Sumitomo Pharma Co., Ltd., priority 2022, dated 2024):
Values after ≈ are worked out from the molar mass of the structure shown. Where two headings read alike, the source gives them in different places.

Assays:
[1] = test system: P. aeruginosa; assay: MIC, broth microdilution, CDC/FDA Antibiotic Resistance Isolate Bank (Example 7, Tables 10, 15); assay type: cell-based; conditions: Pseudomonas aeruginosa, read-out: MIC
[2] = test system: 53 CRE and CPE strains; assay: MICrange, MIC50, MIC80, MIC90 for 53 bacterial isolates (Example 5, Table 5); assay type: cell-based; conditions: 53 bacterial isolates

Compound: CO/N=C(\C(=O)N[C@@H]1C(=O)N2C(C(=O)[O-])=C(C[n+]3ccn4ncccc43)CS[C@H]12)c1nsc(N)n1 [Cefozopran, cefozopran]
- MIC ([1]; P. aeruginosa KUB No. 5669, AR Bank # 236): 4 µg/mL (≈ 7.76 µM)
- MIC ([1]; P. aeruginosa KUB No. 5670, AR Bank # 237): 0.5 µg/mL (≈ 0.97 µM)
- MIC ([1]; P. aeruginosa KUB No. 5671, AR Bank # 238): 1 µg/mL (≈ 1.94 µM)
- MIC ([1]; P. aeruginosa KUB No. 5672, AR Bank # 239): > 64 µg/mL
- MIC ([1]; P. aeruginosa KUB No. 5673, AR Bank # 240): > 64 µg/mL
- MIC ([1]; P. aeruginosa KUB No. 5674, AR Bank # 241): > 64 µg/mL
- MIC ([1]; P. aeruginosa KUB No. 5675, AR Bank # 242): > 64 µg/mL
- MIC ([1]; P. aeruginosa KUB No. 5676, AR Bank # 243): > 64 µg/mL
- MIC ([1]; P. aeruginosa KUB No. 5677, AR Bank # 244): 8 µg/mL (≈ 15.5 µM)
- MIC ([1]; P. aeruginosa KUB No. 5678, AR Bank # 245): > 64 µg/mL
- MIC ([1]; P. aeruginosa KUB No. 5679, AR Bank # 246): > 64 µg/mL
- MIC ([1]; P. aeruginosa KUB No. 5680, AR Bank # 247): 4 µg/mL (≈ 7.76 µM)
- MIC ([1]; P. aeruginosa KUB No. 5681, AR Bank # 248): > 64 µg/mL
- MIC ([1]; P. aeruginosa KUB No. 5682, AR Bank # 249): > 64 µg/mL
- MIC ([1]; P. aeruginosa KUB No. 5684, AR Bank # 251): 8 µg/mL (≈ 15.5 µM)
- MIC ([1]; P. aeruginosa KUB No. 5685, AR Bank # 252): 16 µg/mL (≈ 31 µM)
- MIC ([1]; P. aeruginosa KUB No. 5686, AR Bank # 253): 4 µg/mL (≈ 7.76 µM)
- MIC ([1]; P. aeruginosa KUB No. 5687, AR Bank # 254): > 64 µg/mL
- MIC ([1]; P. aeruginosa KUB No. 5688, AR Bank # 255): > 64 µg/mL
- MIC ([1]; P. aeruginosa KUB No. 5689, AR Bank # 256): 0.5 µg/mL (≈ 0.97 µM)
- MIC ([1]; P. aeruginosa KUB No. 5690, AR Bank # 257): 8 µg/mL (≈ 15.5 µM)
- MIC ([1]; P. aeruginosa KUB No. 5691, AR Bank # 258): 1 µg/mL (≈ 1.94 µM)
- MIC ([1]; P. aeruginosa KUB No. 5692, AR Bank # 259): 1 µg/mL (≈ 1.94 µM)
- MIC ([1]; P. aeruginosa KUB No. 5693, AR Bank # 260): 4 µg/mL (≈ 7.76 µM)
- MIC ([1]; P. aeruginosa KUB No. 5694, AR Bank # 261): 4 µg/mL (≈ 7.76 µM)
- MIC ([1]; P. aeruginosa KUB No. 5695, AR Bank # 262): 2 µg/mL (≈ 3.88 µM)
- MIC ([1]; P. aeruginosa KUB No. 5696, AR Bank # 263): 2 µg/mL (≈ 3.88 µM)
- MIC ([1]; P. aeruginosa KUB No. 5697, AR Bank # 264): 0.5 µg/mL (≈ 0.97 µM)
- MIC ([1]; P. aeruginosa KUB No. 5698, AR Bank # 265): 8 µg/mL (≈ 15.5 µM)
- MIC ([1]; P. aeruginosa KUB No. 5699, AR Bank # 266): 8 µg/mL (≈ 15.5 µM)
- MIC ([1]; P. aeruginosa KUB No. 5700, AR Bank # 267): 4 µg/mL (≈ 7.76 µM)
- MIC ([1]; P. aeruginosa KUB No. 5701, AR Bank # 268): 32 µg/mL (≈ 62.1 µM)
- MIC ([1]; P. aeruginosa KUB No. 5702, AR Bank # 269): 1 µg/mL (≈ 1.94 µM)
- MIC ([1]; P. aeruginosa KUB No. 5703, AR Bank # 270): 4 µg/mL (≈ 7.76 µM)
- MIC ([1]; P. aeruginosa KUB No. 5704, AR Bank # 271): 1 µg/mL (≈ 1.94 µM)
- MIC ([1]; P. aeruginosa KUB No. 5705, AR Bank # 272): 0.5 µg/mL (≈ 0.97 µM)
- MIC ([1]; P. aeruginosa KUB No. 5747, AR Bank # 351): > 64 µg/mL
- MIC ([1]; P. aeruginosa KUB No. 5748, AR Bank # 352): > 64 µg/mL
- MIC ([1]; P. aeruginosa KUB No. 5749, AR Bank # 353): > 64 µg/mL
- MIC ([1]; P. aeruginosa KUB No. 5750, AR Bank # 354): 8 µg/mL (≈ 15.5 µM)
- MIC ([1]; P. aeruginosa KUB No. 5751, AR Bank # 355): 16 µg/mL (≈ 31 µM)
- MIC ([1]; P. aeruginosa KUB No. 5752, AR Bank # 356): > 64 µg/mL
- MIC ([1]; P. aeruginosa KUB No. 5753, AR Bank # 357): > 64 µg/mL
- MIC ([1]; P. aeruginosa KUB No. 5754, AR Bank # 358): 16 µg/mL (≈ 31 µM)
- MIC ([1]; P. aeruginosa KUB No. 5755, AR Bank # 359): 16 µg/mL (≈ 31 µM)
- MIC ([1]; P. aeruginosa KUB No. 5756, AR Bank # 360): 8 µg/mL (≈ 15.5 µM)
- MIC ([1]; P. aeruginosa KUB No. 5785, AR Bank # 439): > 64 µg/mL
- MIC ([1]; P. aeruginosa KUB No. 5786, AR Bank # 440): 32 µg/mL (≈ 62.1 µM)
- MIC ([1]; P. aeruginosa KUB No. 5787, AR Bank # 441): > 64 µg/mL
- MIC ([1]; P. aeruginosa KUB No. 5788, AR Bank # 443): > 64 µg/mL
- MIC ([1]; P. aeruginosa KUB No. 5789, AR Bank # 444): > 64 µg/mL
- MIC ([1]; P. aeruginosa KUB No. 5790, AR Bank # 445): 32 µg/mL (≈ 62.1 µM)
- MIC ([1]; P. aeruginosa KUB No. 5793, AR Bank # 449): > 64 µg/mL
- MIC ([1]; P. aeruginosa KUB No. 5798, AR Bank # 455): 32 µg/mL (≈ 62.1 µM)
- MIC ([1]; P. aeruginosa KUB No. 5799, AR Bank # 456): 32 µg/mL (≈ 62.1 µM)
- MIC ([1]; P. aeruginosa KUB No. 5800, AR Bank # 457): > 64 µg/mL
- MIC ([1]; P. aeruginosa KUB No. 5801, AR Bank # 458): 64 µg/mL (≈ 124 µM)
- MIC ([1]; P. aeruginosa KUB No. 5802, AR Bank # 459): 32 µg/mL (≈ 62.1 µM)
- MIC ([1]; P. aeruginosa KUB No. 5804, AR Bank # 862): 32 µg/mL (≈ 62.1 µM)
- MIC ([1]; P. aeruginosa KUB No. 5805, AR Bank # 863): > 64 µg/mL
- MIC ([1]; P. aeruginosa KUB No. 5806, AR Bank # 864): 64 µg/mL (≈ 124 µM)
- MIC ([1]; P. aeruginosa KUB No. 5813, AR Bank # 508): > 0.064 µg/mL
- MIC ([1]; P. aeruginosa KUB No. 5814, AR Bank # 509): > 0.064 µg/mL
- MIC ([1]; P. aeruginosa KUB No. 5815, AR Bank # 510): 0.004 µg/mL (≈ 0.00776 µM)
- MIC ([1]; P. aeruginosa KUB No. 5816, AR Bank # 511): 0.0005 µg/mL (≈ 0.00097 µM)
- MIC ([1]; P. aeruginosa KUB No. 5817, AR Bank # 512): 0.002 µg/mL (≈ 0.00388 µM)
- MIC ([1]; P. aeruginosa KUB No. 5818, AR Bank # 513): 0.016 µg/mL (≈ 0.031 µM)
- MIC ([1]; P. aeruginosa KUB No. 5819, AR Bank # 514): 0.0005 µg/mL (≈ 0.00097 µM)
- MIC ([1]; P. aeruginosa KUB No. 5820, AR Bank # 515): 0.064 µg/mL (≈ 0.124 µM)
- MIC ([1]; P. aeruginosa KUB No. 5821, AR Bank # 516): > 0.064 µg/mL
- MIC ([1]; P. aeruginosa KUB No. 5823, AR Bank # 518): > 0.064 µg/mL
- MIC ([1]; P. aeruginosa KUB No. 5831, AR Bank # 526): 0.008 µg/mL (≈ 0.0155 µM)
- MIC ([1]; P. aeruginosa KUB No. 5832, AR Bank # 527): 0.008 µg/mL (≈ 0.0155 µM)
- MIC ([1]; P. aeruginosa KUB No. 5833, AR Bank # 528): 0.032 µg/mL (≈ 0.0621 µM)
- MIC ([1]; P. aeruginosa KUB No. 5834, AR Bank # 529): 0.008 µg/mL (≈ 0.0155 µM)
- MIC50 ([2]; read-out: MIC50): 32 µg/mL (≈ 62.1 µM)
- MIC80 ([2]; read-out: MIC80): > 64 µg/mL
- MIC90 ([2]; read-out: MIC90): > 64 µg/mL
